Like-named read-outs stand apart in the source and are kept apart here.
Columns and labels:
[1] = tested on: HDACⅡa; experiment: HDAC subtype selectivity assay with subtype substrate, HDACⅡa; type: biochemical, human; details: 1μM; Hela nuclear extract; substrate of corresponding subtype
Source text: (§1) against both tumor cells and normal cells, then calculate and compare their selective index.” […]
(§2) of Supporting Information.
(§3) Reponses to Reviewer 2’s comments
(§4) Reviewer 2 is also very positive about the manuscript. We thank the reviewer for the helpful comments and careful reading of the manuscript. Our changes and/or responses are detailed below.
(§5) Comment 1: “Should add some discussion about whether the synthesized compounds intend to be pan- or specific- HDAC inhibitors.”
(§6) S1 of Supporting Information.
(§7) Comment 2: “ The cellular data is just described for the acetylation level of tubulin which is only relevant […]
(§8) And then incubation at 37℃ for 1h, the mixture was stopped by the addition of 50 μL of Buffer B (200mM HCl/300 mM Acetic acid), fluorescence intensity was measured using a microplate reader at excitation and emission wavelengths of 360 nm and 460 nm. The inhibition ratios were calculated from the fluorescence intensity readings of tested wells relative to those of control wells, […]
(§9) The rate of cell survival under the action of test substances was evaluated by an improved MTS assay as previously described. […]
(§10) 48 hours 5ul of MTS reagent solution was added into each well and the cells were incubated for another 4 hours at 37℃ under 5% CO2 environment. The absorbance was measured at 490 nm in […]

[2] = tested on: HDACs (HeLa nuclear extract); experiment: HDAC deacetylation inhibition assay, HeLa nuclear extract with BOC-Ac-Lys-AMC substrate; type: biochemical, human
Protocol: With these N^ɛ-acetyl lysine derivatives in hand (schemes 1–3), we then did the pilot screening for general HDAC inhibitory activity at a compound's concentration of 100 µM. All tested compounds were subjected to the inhibition assay against the HDAC deacetylation reaction by using a HeLa nuclear extract as a source of HDACs and BOC-Ac-Lys-AMC as a substrate.
HDACS inhibition assay in vitro
In vitro HDACs inhibition assays were conducted as previously described. In brief, 4 μL of […]
(1μL), then fluorogenic substrate Boc-Lys(acetyl)-AMC (100 μM) and Buffer A (50 mM Tis-HCl pH=8.0, 150 mM NaCl, 30 mM KCl, 10 mM MgCl2) were added. After incubation at 37℃ for 1h, […]
as §8
regression analysis of the concentration/inhibition data. All experiments were done in triplicate. […]

[3] = tested on: cellular HDACs in A549 cells; experiment: Western blotting of acetylation levels of histone H3 and α-tubulin in A549 cells; type: cell-based, human; details: 50, 100 and 200 µM for 24 h
Protocol: (§11) Therefore, hydroxamic acid 18c was engaged in western blotting analysis to evaluate the acetylation levels of histone H3 and α-tubulin.
(§12) Figure 3. […]
(§13) a Microplate to determine the cell viability. The absorbance was directly proportional to the number of viable cells. All experiments were done in triplicate. […]
(§14) calculate and compare their selective index.
(§15) Respectively, A549 and K562 cells were harvested with three different concentrations of […]
(§16) DMEM with 10% FBS (fetal bovine serum) for 24 hours. DMSO was used as the control. Later the cell pellets were collected by centrifuge at 1000 rpm for 5 minutes and then washed by ice-cold PBS (phosphate-buffered saline) twice. The PBS solution was drained and the cell pellets were re-suspended with ice-cold cell lysate buffer (50 mM Tis-HCl PH=7.4, 150 mM NaCl, 1 mM EDTA, 10% glycerin, 1% tirtion 100 and protease inhibitors cocktail) and Vortex blending five times for 30 seconds each over a period of 30 minutes kept on ice. The samples were later centrifuged at 12,000×g for 10 minutes at 4 °C and the supernatants in each tube were collected and placed in a fresh tube kept on ice. BCA (bicinchoninic acid) assay was used to determine the total protein amount. […]
(§17) were removed by washing and a secondary antibody conjugated to an enzyme, a fluorophore was used for detection. The detected signal from the protein: antibody: antibody complex was […]

[4] = tested on: HEK293; experiment: MTS cell proliferation assay, HEK293 (non-cancerous kidney cell); type: cell-based
Protocol: (§18) Because of the great anti-tumour potential of HDAC inhibitors, we did the antiproliferative evaluation of 18c against K562 cells, A549 cells and HepG2 cells using MTS assay as previously described. […]
(§19) The rate of cell survival under the action of test substances was evaluated by an improved MTS assay as previously described. In brief, A549 (5000 cells / well) , HepG2 (5000 cells / well), HEK293 (5000 cells / well) and K562 (1 ×10^4 cells/well) cell lines were seeded into 96-well plates in 100 µL medium. After overnight incubation, each well was added with different […]
as §10, §13
(§20) calculate and compare their selective index. […]
(§21) Unbound antibodies

[5] = tested on: HDACⅠ; experiment: HDAC subtype selectivity assay with subtype substrate, HDACⅠ; type: biochemical, human; details: 1μM; Hela nuclear extract; substrate of corresponding subtype
Source text: as §1, §2, §3, §4, §5, §6, §7, §8, §9, §10

[6] = biological target: T1, HDAC8 (Homo sapiens, UniProt Q9BY41); experiment: HDAC subtype selectivity assay with subtype substrate, HDAC8; type: biochemical; details: 1μM; Hela nuclear extract; substrate of corresponding subtype; read-out: HDAC Inhibition (%) HDAC8
T1 construct: Hela nuclear extract; endogenous in cells; host or cells: HeLa nuclear extract
T1 sequence (Q9BY41 1-377): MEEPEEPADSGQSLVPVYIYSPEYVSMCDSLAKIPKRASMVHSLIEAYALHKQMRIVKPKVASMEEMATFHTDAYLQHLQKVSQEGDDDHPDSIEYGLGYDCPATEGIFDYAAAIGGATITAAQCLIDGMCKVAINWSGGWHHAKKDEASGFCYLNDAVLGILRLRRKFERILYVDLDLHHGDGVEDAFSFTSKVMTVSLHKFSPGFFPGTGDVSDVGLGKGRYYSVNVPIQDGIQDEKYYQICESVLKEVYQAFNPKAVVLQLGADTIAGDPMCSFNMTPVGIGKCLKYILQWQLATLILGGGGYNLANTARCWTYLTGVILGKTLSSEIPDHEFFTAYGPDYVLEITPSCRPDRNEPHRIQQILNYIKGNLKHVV

[7] = tested on: cellular HDACs in K562 cells; experiment: Western blotting of acetylation levels of histone H3 and α-tubulin in K562 cells; type: cell-based, human; details: 50, 100 and 200 µM for 24 h
Protocol: as §11, §12, §13, §14, §15, §16, §17

[8] = tested on: K562 cells; experiment: MTS cell proliferation assay, K562; type: cell-based, human
Protocol: as §18, §19, §10, §13, §20, §21

[9] = tested on: A549 cells; experiment: MTS cell proliferation assay, A549; type: cell-based, human
Protocol: as §18, §19, §10, §13, §20, §21

[10] = tested on: HepG2 cells; experiment: MTS cell proliferation assay, HepG2; type: cell-based, human
Protocol: as §18, §19, §10, §13, §20, §21

[11] = Homo sapiens, MTS assay, 48 hours
[12] = concentration range of 10–500 µM, MTS

SMILES: O=C(CCCCCCC(=O)NCCCC[C@H](NC(=O)OCc1ccccc1)C(=O)Nc1ccccc1)NO [Compound 18c]
- HDAC Inhibition (%) HDACⅡa [1]: 16.65±2.690%
- IC50 ([2]; BOC-Ac-Lys-AMC substrate, read-out: IC50 values, HeLa nuclear extract): 500 ± 210 nM
- IC50 ([2]; as restated in the conclusion, read-out: IC50 value): ~500 nM
- HDAC inhibition (%) ([2]; compound at 100 µM, BOC-Ac-Lys-AMC substrate): 109.2 ± 0.5%
- acetylation levels of histone H3 and α-tubulin [3]: dose-dependent increase
- IC50 ([4]; Homo sapiens, HEK293, MTS assay, 48 hours, normal cells): > 500 µM
- selectivity index (SI) ([4]; normal cells (HEK293) versus tumor cells (K562, A549, HepG2) IC50s): 3.16~12.14
- toxicity in non-cancerous kidney cell (HEK293) compared with SAHA (1) ([4]; same concentrations (5 µM and 10 µM), MTS): less toxicity
- HDAC Inhibition (%) HDACⅠ [5]: 61.06±1.064%
- inhibition at 1 µM [6]: 38.3 ± 1.22%
- acetylation levels of histone H3 and α-tubulin [7]: dose-dependent increase
- IC50 [8, 11]: 41.2 ± 1.73 µM
- concentration showing antiproliferative activity comparable to SAHA (1) at 10 µM ([8]; MTS): 50 to 100 µM
- antiproliferative activity [8, 12]: dose-dependent manner
- IC50 [9, 11]: 134 ± 2.13 µM
- concentration showing antiproliferative activity comparable to SAHA (1) at 10 µM ([9]; MTS): 50 to 100 µM
- antiproliferative activity [9, 12]: dose-dependent manner
- IC50 [10, 11]: 158 ± 2.2 µM
- concentration showing antiproliferative activity comparable to SAHA (1) at 10 µM ([10]; MTS): 200 µM
- antiproliferative activity [10, 12]: dose-dependent manner

Reference: PMC6599804, “N^ɛ-acetyl lysine derivatives with zinc binding groups as novel HDAC inhibitors” (Royal Society Open Science, 2019)
